Source: patent publication US5130421A, “Production of 2',3'-dideoxy-2',3'-didehydronucleosides” (priority 1991, dated 1992)
Like-named read-outs stand apart in the source and are kept apart here.

Columns and labels:
AIDS = conditions: clinical trials, patients with AIDS; cited from earlier work
HIV (LAV strain) = assay: in vitro anti-HIV efficacy (antiviral test on HIV (LAV strain)-infected CEM cells); format: cell-based; conditions: Human immunodeficiency virus 1, CCRF-CEM, read-out: ID50 (the 50% inhibitory dose)
Protocol: Comparative in vitro anti-HIV efficacy^a and
^a The antiviral test was performed on HIV (LAV strain)infected CEM
^c The 50% inhibitory dose.

[1] = cellular toxicity measured in CEM cells; format: cell-based; conditions: human, read-out: TCID50 (the 50% tissue culture inhibitory dose)
Protocol: cellular toxicity^b of AZT and d4T.
^b The cellular toxicity was measured in CEM cells.
^d The 50% tissue culture inhibitory dose.

HIV [2] = conditions: cited from earlier work
HIV [3] = conditions: in several cell lines; cited from earlier work

Row | Compound | reported activity against HIV (HIV [2]) | also measured
1 | Cc1cn([C@H]2C[C@H](N=[N+]=[N-])[C@@H](CO)O2)c(=O)[nH]c1=O [AZT, 3'-azido-3'-deoxythymidine] | – | efficacy in the treatment of AIDS (AIDS): efficacious agent in the treatment of AIDS in clinical trials; IC50 (HIV (LAV strain)): 0.45 µM; CC50 [1]: 54 µM
2 | Cc1cn([C@H]2C[C@H](F)[C@@H](CO)O2)c(=O)[nH]c1=O [FDDT, 3'-fluoro-3'-deoxythymidine] | active against HIV | –
3 | O[C@H]1[C@H](O)[C@@H](O)CN2CC[C@H](O)[C@H]12 [castanospermine] | active against HIV | –
4 | Nc1ccn([C@H]2C=C[C@@H](CO)O2)c(=O)n1 [d4C, 2',3'-dideoxy-2',3'-didehydrocytidine] | active against HIV | –
5 | Cc1cn([C@H]2C=C[C@@H](CO)O2)c(=O)[nH]c1=O [d4T, 1-(2,3-Dideoxy-β-D-glycero-pent-2-enofuranosyl)thymine] | – | IC50 (HIV (LAV strain); in vitro anti-HIV efficacy, HIV (LAV strain) infected CEM cells): 0.33 µM; CC50 [1]: 39 µM; in vitro activity against HIV (HIV [3]): possesses in vitro activity against HIV in several cell lines
6 | CC(C)(S)[C@@H](N)C(=O)O [d-penicillamine] | active against HIV | –
7 | Nc1ncnc2c1ncn2[C@H]1CC[C@@H](CO)O1 [ddA, 2',3'-dideoxyadenosine] | active against HIV | –
8 | Nc1ccn([C@H]2CC[C@@H](CO)O2)c(=O)n1 [ddC, 2',3'-Dideoxycytidine] | active against HIV | –
9 | O=C(O)P(=O)(O)O [foscarnet] | active against HIV | –
10 | CC(=O)O[C@H]1C[C@@]2(C)[C@@H](C[C@@H](O)[C@H]3[C@@]4(C)CC[C@@H](O)[C@@H](C)[C@@H]4CC[C@@]32C)/C1=C(\CCC=C(C)C)C(=O)O [fusidic acid] | active against HIV | –
11 | NC(=O)c1ncn([C@@H]2O[C@H](CO)[C@@H](O)[C@H]2O)n1 [ribavarin] | active against HIV | –
12 | Cc1ccc(C(=O)Nc2ccc(S(=O)(=O)O)c3cc(S(=O)(=O)O)cc(S(=O)(=O)O)c23)cc1NC(=O)c1cccc(NC(=O)Nc2cccc(C(=O)Nc3cc(C(=O)Nc4ccc(S(=O)(=O)O)c5cc(S(=O)(=O)O)cc(S(=O)(=O)O)c45)ccc3C)c2)c1 [suramine] | active against HIV | –
